Measured values from patent US7479498B2, “Treatments for viral infections” (priority 1999, dated 2009).
“Also recorded” adds a separate entry of the source. Structures can show the parent of a compound that is named as a salt. Where two headings read alike, the source gives them in different places.

How the values were obtained:
P. vivax = conditions: in vivo; cited from earlier work
[1] = cited from earlier work; for time to peak (maximum) plasma concentration: oral; for plasma half-life: after oral primaquine
P. falciparum = conditions: cited from earlier work
[2] = cited from earlier work
GSH production = conditions: cited from earlier work
HIV = assay type: cell-based; conditions: standardized extract containing 1-10 μg/ml quercetin
From the text: The in vitro effect of calcium channel blockers on HIV infection both in HIV adapted cell lines (HUT/H9) as well as acutely infected peripheral blood lymphocytes were studied.

C=C[C@H]1C[N@@]2CC[C@H]1C[C@H]2[C@H](O)c1ccnc2ccc(OC)cc12 [Quinine]
mean plasma concentration effective to eliminate asexual parasites (P. vivax): over 5 μg/mL
cerebrospinal fluid concentration as share of plasma level ([1]; in vivo): about 7%
plasma concentration accompanied by adverse reactions of cinchonism ([1]; in vivo): over 7 μg/mL
red blood cell level as share of plasma level ([1]; in vivo): about 20%
share of drug metabolized in the liver ([1]; in vivo): Approximately 80%
time to peak (maximum) plasma concentration [1]: 1 to 3 h
plasma level ([1]; standard oral doses, normal or mild infection): about 7 μg/mL

COc1cc(NC(C)CCC(=O)O)c2ncccc2c1 (centres unmarked) [carboxyprimaquine]
peak serum concentration ([1]; after 14 daily doses of primaquine): 432 to 1240 ng/mL
plasma half-life [1]: 22 to 30 h
plasma concentration relative to parent compound ([1]; in vivo): more than ten times greater

CCN(CC)CCCC(C)Nc1ccnc2cc(Cl)ccc12 (centres unmarked) [Chloroquine]
therapeutically effective plasma concentration (P. vivax): ~15 µg/L
apparent volume of distribution ([1]; in vivo): about 13,000 L
half-life (elimination / urinary excretion) ([1]; in vivo): 72 to 120 h
plasma protein binding ([1]; in vivo): 50-65%
time to peak (maximum) plasma concentration [1]: about 3 hours
therapeutically effective plasma concentration (P. falciparum; sensitive P. falciparum): approximately 30 μg/L

O=C1NC(=O)C(c2ccccc2)(c2ccccc2)N1 [phenytoin, 5,5-diphenyl-2,4-imidazolidinedione]
solubility in water / aqueous mixtures [2]: poorly soluble in aqueous mixtures; also recorded: water insoluble

O=C1NC(=O)C(c2ccccc2)(c2ccccc2)N1 [Phenytoin sodium, monosodium salt of 5,5-diphenyl hydantoinate]
solubility in water / aqueous mixtures [2]: readily soluble in water; also recorded: highly water-soluble

COc1cc(NC(C)CCCN)c2ncccc2c1 (centres unmarked) [Primaquine]
plasma half-life [1]: 3 to 8 h
peak serum concentration ([1]; oral primaquine): 50 to 66 ng/mL
time to peak (maximum) plasma concentration [1]: 1 to 2 h

OC(c1cc(C(F)(F)F)nc2c(C(F)(F)F)cccc12)C1CCCCN1 (centres unmarked) [Mefloquine]
half-life (elimination / urinary excretion) ([1]; in vivo): 312 to 792 h
plasma level necessary for chemo-suppression (P. falciparum; in vivo): 200 to 300 ng/mL

O=c1c(O)c(-c2ccc(O)c(O)c2)oc2cc(O)cc(O)c12 [quercetin, 2-(3,4-Dihydroxyphenyl)-3,5,7-trihydroxy-4H-1-benzopyran-4-one]
absorption in the jejunum ([1]; in vivo): 66%
increase of GSH production (GSH production): 50%
reduction of HIV activity (HIV): 5-20%
